Measurements published in publication PMC12377313, “New 1E,1′E-hydrazine-bis(phenoxy-1,2,3-triazol-acetamide) derivatives as potent inhibitors against acetylcholinesterase, butyrylcholinesterase, and α-glucosidase” (RSC Advances, 2025).
Read-outs that look alike come from different tables or passages of the source.

What was measured:
[1] = system: SH-SY5Y neuroblastoma cells; assay: MTT cell viability assay, SH-SY5Y; format: cell-based, human; conditions: for IC50: read-out: IC50 (μM) SH-SY5Y; for Selectivity (selectivity index): HEK293 versus SH-SY5Y
Procedure: The cells were incubated at 37 °C in a humidified atmosphere of 5% CO2. Both cell lines were provided by the American Type Culture Collection (ATCC).[30,31]
Each concentration was tested in triplicate.
(§1) Following treatment, 10 μL of MTT solution (5 mg mL^−1 in PBS) was added to each well and incubated for an additional 4 hours under the same conditions. At the end of the incubation period, the medium containing MTT was carefully removed, and the formazan crystals formed by viable cells were solubilized in 100 μL of DMSO per well. The absorbance was measured at 570 nm using a microplate reader. The net absorbance (after blank subtraction) was used to calculate the percentage cell viability relative to the untreated control cells, which was set at 100%. All results were expressed as mean ± standard deviation (SD) of three independent experiments.[32,33]

[2] = system: HEK293 embryonic kidney cells; assay: MTT cell viability assay, HEK293; format: cell-based; conditions: Homo sapiens, read-out: IC50 (μM) HEK-293
Procedure: The human neuroblastoma cell line SH-SY5Y (ATCC® CRL-2266™) and HEK293 (ATCC® CRL-1573™) human embryonic kidney cells were grown in Dulbecco's Modified Eagle Medium/Nutrient Mixture F-12 (DMEM/F-12) culture containing 10% heat-inactivated fetal bovine serum (FBS) and 1% antibiotics. The cells were incubated at 37 °C in a humidified atmosphere of 5% CO2. Both cell lines were provided by the American Type Culture Collection (ATCC).[30,31]
SH-SY5Y (ATCC® CRL-2266™) and HEK293 (ATCC® CRL-1573™) cells were seeded into 96-well plates at a density of 5 × 10^3 cells per well, and allowed to adhere overnight in a humidified incubator at 37 °C with 5% CO2. After attachment, the cells were treated with eight different concentrations of the target compounds (200, 100, 50, 25, 12.5, 6.25, 3.125, and 1.5625 μM), prepared via serial 1 : 2 dilutions, for 24 hours. Each concentration was tested in triplicate.
as §1

[3] = target: AChE (Homo sapiens, UniProt P22303); assay: biochemical; format: biochemical
[4] = target: BChE (Homo sapiens, UniProt P06276); assay: biochemical
[5] = target: α-glucosidase (Saccharomyces cerevisiae, UniProt P53341); assay: α-Glucosidase inhibition assay (p-NPG substrate); format: biochemical, yeast
Procedure: For this assay, the yeast form of α-glucosidase was used and p-nitrophenyl-α-D-glycopyranoside (p-NPG) was used as the substrate. The required solutions of these materials were prepared in a phosphate buffer solution (pH of 7.4 and a concentration of 5 mM). […] Subsequently, a mixture containing 200 μL of phosphate solution, 50 μL of the substrate, and 5–200 μL of the sample solution was pre-incubated at 35 °C for 3 min for α-glucosidase.

[6] = Homo sapiens, SH-SY5Y, 24 h, 24 h treatment, MTT, mean ± SD (n = 3)
[7] = HEK293, 24 h treatment, MTT, mean ± SD (n = 3)
[8] = 24 h treatment, MTT, mean ± SD (n = 3)
[9] = read-out: IC50 (nM) α-Glucosidase

BChE, sequence (P06276 29-602): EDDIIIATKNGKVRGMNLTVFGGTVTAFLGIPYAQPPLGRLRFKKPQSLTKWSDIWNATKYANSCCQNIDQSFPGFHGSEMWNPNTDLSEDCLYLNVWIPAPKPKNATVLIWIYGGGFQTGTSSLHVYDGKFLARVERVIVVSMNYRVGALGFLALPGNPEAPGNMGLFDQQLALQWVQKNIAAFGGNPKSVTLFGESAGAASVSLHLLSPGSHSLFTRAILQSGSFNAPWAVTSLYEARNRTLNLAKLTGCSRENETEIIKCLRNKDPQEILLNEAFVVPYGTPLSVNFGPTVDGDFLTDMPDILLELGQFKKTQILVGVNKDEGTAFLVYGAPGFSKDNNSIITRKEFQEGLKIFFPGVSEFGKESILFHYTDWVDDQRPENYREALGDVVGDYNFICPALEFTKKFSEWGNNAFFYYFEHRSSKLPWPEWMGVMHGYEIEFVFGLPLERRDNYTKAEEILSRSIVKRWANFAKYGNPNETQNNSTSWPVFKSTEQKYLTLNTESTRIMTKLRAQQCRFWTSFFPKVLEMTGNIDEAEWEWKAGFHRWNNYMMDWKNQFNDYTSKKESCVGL
AChE, sequence (P22303 32-614): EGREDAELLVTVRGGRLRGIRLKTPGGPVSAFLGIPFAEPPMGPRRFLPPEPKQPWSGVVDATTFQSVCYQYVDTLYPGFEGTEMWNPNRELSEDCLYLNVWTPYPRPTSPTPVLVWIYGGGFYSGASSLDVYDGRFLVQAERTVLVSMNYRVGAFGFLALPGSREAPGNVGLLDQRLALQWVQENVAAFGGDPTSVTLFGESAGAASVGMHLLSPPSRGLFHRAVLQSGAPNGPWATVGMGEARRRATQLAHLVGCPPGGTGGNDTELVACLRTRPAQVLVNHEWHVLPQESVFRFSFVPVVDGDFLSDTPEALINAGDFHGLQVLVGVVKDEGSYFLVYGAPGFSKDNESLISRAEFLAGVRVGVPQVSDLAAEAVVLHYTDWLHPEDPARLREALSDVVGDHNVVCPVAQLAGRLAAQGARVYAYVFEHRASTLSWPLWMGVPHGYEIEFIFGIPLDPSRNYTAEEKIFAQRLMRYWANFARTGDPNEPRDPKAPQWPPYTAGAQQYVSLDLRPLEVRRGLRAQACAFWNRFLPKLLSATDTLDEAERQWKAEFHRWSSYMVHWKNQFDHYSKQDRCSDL
α-glucosidase, sequence (P53341 whole entry): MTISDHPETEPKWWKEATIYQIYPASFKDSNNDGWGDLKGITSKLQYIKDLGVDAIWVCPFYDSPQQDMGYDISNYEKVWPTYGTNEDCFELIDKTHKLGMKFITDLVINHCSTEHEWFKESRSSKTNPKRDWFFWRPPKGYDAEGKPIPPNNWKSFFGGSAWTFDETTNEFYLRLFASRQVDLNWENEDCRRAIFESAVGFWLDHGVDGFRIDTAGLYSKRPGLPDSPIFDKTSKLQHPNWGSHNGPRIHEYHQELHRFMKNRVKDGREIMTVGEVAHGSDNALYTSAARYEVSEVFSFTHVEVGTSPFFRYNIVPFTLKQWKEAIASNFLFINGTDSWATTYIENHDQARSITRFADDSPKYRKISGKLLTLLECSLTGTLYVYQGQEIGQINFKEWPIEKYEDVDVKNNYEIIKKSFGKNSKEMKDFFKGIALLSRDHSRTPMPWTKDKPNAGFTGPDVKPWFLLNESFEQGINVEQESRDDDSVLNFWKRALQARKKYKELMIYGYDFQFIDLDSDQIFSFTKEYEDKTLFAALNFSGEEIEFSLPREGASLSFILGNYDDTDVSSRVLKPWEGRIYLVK

Structure (SMILES) | IC50 [1, 6] [µM] | IC50 [2, 7] [µM] | IC50 ([3]; read-out: IC50 (nM) AChE) [nM] | Selectivity (selectivity index) [1] | IC50 [4] [nM] | IC50 [5] [nM] | fold diminished anti-AChE inhibitory activity relative to 10k ([3]; removal of 2-chloro substituent, versus 10k) [fold] | folds more potent than the standard inhibitor acarbose against α-glucosidase ([5]; relative to acarbose) [fold] | IC50 [1, 8] [µM] | IC50 [3] [nM] | IC50 ([1]; Homo sapiens, SH-SY5Y, 24 h) [µM] | IC50 ([2]; HEK293, 24 h) [µM] | IC50 [5, 9] [nM]
CNC(=O)c1cc(Oc2ccc(NC(=O)Nc3ccc(Cl)c(C(F)(F)F)c3)cc2)ccn1 [Sorafenib, reference compound] | 3.88 ± 0.12 | 16.22 ± 0.14 |  |  |  |  |  |  |  |  |  |  | 
CCc1ccc(NC(=O)Cn2cc(COc3ccc(/C=N/N=C/c4ccc(OCc5cn(CC(=O)Nc6ccc(CC)cc6)nn5)cc4)cc3)nn2)cc1 [Compound 10f, 2,2′-((((((1E,1′E)-Hydrazine-1,2-diylidenebis(methaneylylidene))bis(4,1-phenylene))bis(oxy))bis(methylene))bis(1H-1,2,3-triazole-4,1-diyl))bis(N-(4-ethylphenyl)acetamide)] | 7.33 ± 0.11 | 33.2 ± 0.55 | 159 ± 6.17 | 4.5 | 17 ± 5.46 | 66.4 ± 4.43 |  |  |  |  |  |  | 
Cc1cccc(NC(=O)Cn2cc(COc3ccc(/C=N/N=C/c4ccc(OCc5cn(CC(=O)Nc6cccc(C)c6)nn5)cc4)cc3)nn2)c1 [Compound 10b, 2,2′-((((((1E,1′E)-Hydrazine-1,2-diylidenebis(methaneylylidene))bis(4,1-phenylene))bis(oxy))bis(methylene))bis(1H-1,2,3-triazole-4,1-diyl))bis(N-(m-tolyl)acetamide)] | 15.8 ± 0.2 | 43.42 ± 0.36 | 167 ± 9.46 | 2.7 | 18.3 ± 4.84 | 62.1 ± 5.43 |  |  |  |  |  |  | 
Cc1ccccc1NC(=O)Cn1cc(COc2ccc(/C=N/N=C/c3ccc(OCc4cn(CC(=O)Nc5ccccc5C)nn4)cc3)cc2)nn1 [Compound 10a, 2,2′-((((((1E,1′E)-Hydrazine-1,2-diylidenebis(methaneylylidene))bis(4,1-phenylene))bis(oxy))bis(methylene))bis(1H-1,2,3-triazole-4,1-diyl))bis(N-(o-tolyl)acetamide)] | 8.22 ± 0.12 | 78.21 ± 0.42 | 163 ± 5.38 | 9.5 | 18.4 ± 3.09 | 43.1 ± 8.21 |  |  |  |  |  |  | 
O=C(Cn1cc(COc2ccc(/C=N/N=C/c3ccc(OCc4cn(CC(=O)Nc5ccc(Cl)cc5)nn4)cc3)cc2)nn1)Nc1ccc(Cl)cc1 [Compound 10j, 2,2′-((((((1E,1′E)-Hydrazine-1,2-diylidenebis(methaneylylidene))bis(4,1-phenylene))bis(oxy))bis(methylene))bis(1H-1,2,3-triazole-4,1-diyl))bis(N-(4-chlorophenyl)acetamide)] | 6.75 ± 0.18 | 67.43 ± 0.47 | 145 ± 6.23 | 10.0 | 16.4 ± 4.43 | 34.3 ± 3.49 | 1.3 | 1.7 |  |  |  |  | 
COc1ccc(NC(=O)Cn2cc(COc3ccc(/C=N/N=C/c4ccc(OCc5cn(CC(=O)Nc6ccc(OC)cc6OC)nn5)cc4)cc3)nn2)c(OC)c1 [Compound 10e, 2,2′-((((((1E,1′E)-Hydrazine-1,2-diylidenebis(methaneylylidene))bis(4,1-phenylene))bis(oxy))bis(methylene))bis(1H-1,2,3-triazole-4,1-diyl))bis(N-(2,4-dimethoxyphenyl)acetamide)] | > 30 | 68.95 ± 0.41 | 140 ± 9.43 | 2.1 | 16.3 ± 2.09 | 58.5 ± 4.27 |  |  | 33.19 ± 0.25 |  |  |  | 
O=C(Cn1cc(COc2ccc(/C=N/N=C/c3ccc(OCc4cn(CC(=O)Nc5ccc([N+](=O)[O-])cc5)nn4)cc3)cc2)nn1)Nc1ccc([N+](=O)[O-])cc1 [Compound 10n, 2,2′-((((((1E,1′E)-Hydrazine-1,2-diylidenebis(methaneylylidene))bis(4,1-phenylene))bis(oxy))bis(methylene))bis(1H-1,2,3-triazole-4,1-diyl))bis(N-(4-nitrophenyl)acetamide)] |  |  |  | 7.4 | 13.9 ± 4.3 |  |  |  |  | 173 ± 9.71 | 5.22 ± 0.12 | 38.42 ± 0.19 | 65.1 ± 6.01
O=C(Cn1cc(COc2ccc(/C=N/N=C/c3ccc(OCc4cn(CC(=O)Nc5ccccc5[N+](=O)[O-])nn4)cc3)cc2)nn1)Nc1ccccc1[N+](=O)[O-] [Compound 10m, 2,2′-((((((1E,1′E)-Hydrazine-1,2-diylidenebis(methaneylylidene))bis(4,1-phenylene))bis(oxy))bis(methylene))bis(1H-1,2,3-triazole-4,1-diyl))bis(N-(2-nitrophenyl)acetamide)] |  |  |  | 1.6 | 16.9 ± 4.83 |  |  |  |  | 157 ± 8.65 | 28.33 ± 0.26 | 46.45 ± 0.45 | 36.6 ± 4.86
O=C(Cn1cc(COc2ccc(/C=N/N=C/c3ccc(OCc4cn(CC(=O)Nc5ccccc5F)nn4)cc3)cc2)nn1)Nc1ccccc1F [Compound 10g, 2,2′-((((((1E,1′E)-Hydrazine-1,2-diylidenebis(methaneylylidene))bis(4,1-phenylene))bis(oxy))bis(methylene))bis(1H-1,2,3-triazole-4,1-diyl))bis(N-(2-fluorophenyl)acetamide)] | 12.9 ± 0.13 | 86.45 ± 0.52 | 112 ± 9.6 | 6.7 | 12.4 ± 3.21 | 56.7 ± 6.34 |  |  |  |  |  |  | 
O=C(Cn1cc(COc2ccc(/C=N/N=C/c3ccc(OCc4cn(CC(=O)Nc5cccc(Cl)c5)nn4)cc3)cc2)nn1)Nc1cccc(Cl)c1 [Compound 10i, 2,2′-((((((1E,1′E)-Hydrazine-1,2-diylidenebis(methaneylylidene))bis(4,1-phenylene))bis(oxy))bis(methylene))bis(1H-1,2,3-triazole-4,1-diyl))bis(N-(3-chlorophenyl)acetamide)] | 4.26 ± 0.08 | 37.4 ± 0.55 | 164 ± 9.54 | 8.8 | 15.3 ± 3.16 | 45.8 ± 4.71 |  |  |  |  |  |  | 
Cc1cccc(NC(=O)Cn2cc(COc3ccc(/C=N/N=C/c4ccc(OCc5cn(CC(=O)Nc6cccc(C)c6C)nn5)cc4)cc3)nn2)c1C [Compound 10d, 2,2′-((((((1E,1′E)-Hydrazine-1,2-diylidenebis(methaneylylidene))bis(4,1-phenylene))bis(oxy))bis(methylene))bis(1H-1,2,3-triazole-4,1-diyl))bis(N-(2,3-dimethylphenyl)acetamide)] | 12 to 16 | 75.22 ± 0.35 | 131 ± 7.23 | 4.6 | 14.9 ± 2.08 | 71.2 ± 8.14 |  |  | 16.4 ± 0.21 |  |  |  | 
O=C(Cn1cc(COc2ccc(/C=N/N=C/c3ccc(OCc4cn(CC(=O)Nc5ccc(Br)cc5)nn4)cc3)cc2)nn1)Nc1ccc(Br)cc1 [Compound 10l, 2,2′-((((((1E,1′E)-Hydrazine-1,2-diylidenebis(methaneylylidene))bis(4,1-phenylene))bis(oxy))bis(methylene))bis(1H-1,2,3-triazole-4,1-diyl))bis(N-(4-bromophenyl)acetamide)] | > 30 | 92.86 ± 0.71 | 148 ± 8.23 | 2.2 | 16.4 ± 4.74 | 39.1 ± 5.1 |  |  | 42.15 ± 0.37 |  |  |  | 
Cc1ccc(NC(=O)Cn2cc(COc3ccc(/C=N/N=C/c4ccc(OCc5cn(CC(=O)Nc6ccc(C)cc6)nn5)cc4)cc3)nn2)cc1 [Compound 10c, 2,2′-((((((1E,1′E)-Hydrazine-1,2-diylidenebis(methaneylylidene))bis(4,1-phenylene))bis(oxy))bis(methylene))bis(1H-1,2,3-triazole-4,1-diyl))bis(N-(p-tolyl)acetamide)] | 12 to 16 | 46.91 ± 0.32 | 164 ± 9.7 | 3.9 | 17.1 ± 3.21 | 67 ± 7.88 |  |  | 11.9 ± 0.2 |  |  |  | 
